According to US20260285853A1, “COMPOUNDS AND METHODS FOR MODULATING SPLICING” (REMIX THERAPEUTICS INC., priority 2023, published 2026):
Read-outs that look alike come from different tables or passages of the source.

Assays:
Format in all cases: cell-based
MYB mRNA [1] = assay: Splicing RT-qPCR assay (THP), Table 2A
HTT mRNA [2] = assay: Gene panel canonical junction qPCR assay, decrease in CJ mRNA, Table 3
Procedure: (§1) Compounds described herein were used to modulate RNA transcript abundance in cells. The expression of a target mRNA was measured by detecting the formation of an exon-exon junction in the canonical transcript (CJ). A compound mediated exon-inclusion event was detected by observing an increase in formation of a new junction with an alternative exon (AJ). Real-time qPCR assays were used to detect these splicing switches and interrogate the potency of various compounds towards different target genes. A high-throughput real time quantitative PCR (RT-qPCR) assay was developed to measure these two isoforms of the mRNA (CJ and AJ) for exemplary genes, such as HTT, SMN2, and MYB, together with a control housekeeping gene, GAPDH or GUSB or PPIA, used for normalization. Briefly, the A673 or K562 cell line was treated with various compounds described herein (e.g., compounds of Formula (I)). After treatment, the levels of the HTT, MYB, or SMN2 mRNA targets were determined from each sample of cell lysate by cDNA synthesis followed by qPCR.
(§2) The A673 cell line was cultured in DMEM with 10% FBS. Cells were diluted with full growth media and plated in a 96-well plate (15,000 cells in 100 ul media per well). The plate was incubated at 37° C. with 5% CO2 for 24 hours to allow cells to adhere. An 11-point 3-fold serial dilution of the compounds was made in DMSO then diluted in media in an intermediate plate. Compounds were transferred from the intermediate plate to the cell plate with the top dose at a final concentration of 10 uM in the well. Final DMSO concentration was kept at or below 0.25%. The cell plate was returned to the incubator at 37° C. with 5% CO2 for an additional 24 hours.
(§3) The K562 cell line was cultured in IMDM with 10% FBS. For K562, cells were diluted with full growth media and plated in either a 96-well plate (50,000 cells in 50 uL media per well) or a 384-well plate (8,000-40,000 cells in 45 uL media per well). An 11-point 3-fold serial dilution of the compounds were made in DMSO then diluted in media in an intermediate plate. Compound was transferred from the intermediate plate to the cell plate with the top dose at a final concentration of 10 uM in the well. Final DMSO concentration was kept at or below 0.25%. Final volume was 100 uL for 96-well plate and 50 uL for 384-well plate. The cell plate was then placed in an incubator at 37° C. with 5% CO2 for 24 hours.
(§4) The data analysis was performed by first determining the ΔCt vs the housekeeper gene. This ΔCt was then normalized against the DMSO control (ΔΔCt) and converted to RQ (relative quantification) using the 2^(−ΔΔCt) equation. The RQ were then converted to a percentage response by arbitrarily setting an assay window of 3.5 and 4.0 ΔCt for HTT-CJ and MYB-CJ respectively and an assay window of 9 and 3 ΔCt for HTT-AJ and MYB-AJ in 96 well format (50,000 K562 cells/well and 15,000 A673 cells per well) and an assay window of 3 and 4 ΔCt for HTT-CJ and MYB-CJ respectively and an assay window of 5 and 3 ΔCt for HTT-AJ and MYB-AJ respectively in 384 well format (8,000 K562 cells/well example). […] The percentage response was then fitted to the 4 parametric logistic equation to evaluate the concentration dependence of compound treatment. The increase in AJ mRNA is reported as AC50 (compound concentration having 50% response in AJ increase) while the decrease in CJ mRNA levels is reported as IC50 (compound concentration having 50% response in CJ decrease).
(§5) Additional studies were carried out for a larger panel of genes using the protocol provided above. The junction between flanking upstream and downstream exons was used to design canonical junction qPCR assays. At least one of the forward primer, reverse primer or the CY5-labeled 5′ nuclease probe (with 3′ quencher such as ZEN/Iowa Black FQ) was designed to overlap with the exon junction to capture the CJ mRNA transcript. […]

MYB mRNA [3] = assay: as above
Procedure: as §1, §2, §3, §4, §5

[4] = test system: SH-SY5Y (human neuroblastoma) cells; assay: Cell viability, Cell Titer Glo 2.0 assay; details: read-out: Viability SHSY5Y.3 GI50
In short: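 Following a 72 h incubation (37 °C, 5% CO2, 0.1% DMSO final), compound toxicity toward SH-SY5Y cells was quantified by CellTiter-Glo 2.0.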

HTT mRNA [5] = assay: Splicing RT-qPCR assay (THP), Table 2A
[6] = Table 2A (THP), AJ mRNA increase, read-out: MYB AJ (increase in alternative junction mRNA, AC50)
[7] = Table 2A (THP), CJ mRNA decrease, read-out: MYB CJ (decrease in canonical junction mRNA, IC50)
[8] = decrease in canonical junction (CJ) mRNA, gene panel qPCR, Table 3
[9] = Table 2A (THP), AJ mRNA increase, read-out: HTT AJ (increase in alternative junction mRNA, AC50)
[10] = Table 2A (THP), CJ mRNA decrease, read-out: HTT CJ (decrease in canonical junction mRNA, IC50)
[11] = Table 2A, THP, MYB alternative junction (AJ) mRNA, read-out: MYB AJ (AC50, increase in alternative junction mRNA)
[12] = Table 2A, THP, MYB canonical junction (CJ) mRNA, read-out: MYB CJ (IC50, decrease in canonical junction mRNA)
[13] = decrease in CJ mRNA levels, canonical junction qPCR, gene panel
[14] = Table 2A, THP, HTT alternative junction (AJ) mRNA, read-out: HTT AJ (AC50, increase in alternative junction mRNA)
[15] = Table 2A, THP, HTT canonical junction (CJ) mRNA, read-out: HTT CJ (IC50, decrease in canonical junction mRNA)

Row | IC50 (MYB mRNA [1]; [7]) [µM] | IC50 (HTT mRNA [2]; [8]) [µM] | IC50 (MYB mRNA [3]; [8]) [µM] | GI50 [4] [nM] | IC50 (HTT mRNA [5]; [10]) [µM] | IC50 (MYB mRNA [1]; [12]) [µM] | IC50 (HTT mRNA [2]; [13]) [µM] | IC50 (MYB mRNA [3]; [13]) [µM] | IC50 (HTT mRNA [5]; [15]) [µM] | SMILES | AC50 (MYB mRNA [1]; [6]) [µM] | AC50 (HTT mRNA [5]; [9]) [µM] | AC50 (MYB mRNA [1]; [11]) [µM] | AC50 (HTT mRNA [5]; [14]) [µM]
1 | 1 to 10 | > 10 | 1 to 10 | > 10000 | > 10 |  |  |  |  | CCNC1CCN(c2ccc(C(=O)Nc3cc(C)c(=O)n(C)c3)c3nn(C)cc23)CC1 [Compound 561, N-(1,5-dimethyl-6-oxo-3-pyridyl)-4-[4-(ethylamino)-1-piperidyl]-2-methyl-indazole-7-carboxamide] | > 10 | > 10 |  | 
2 | < 0.1 | 1 to 10 | < 0.1 | 100 to 1000 | 1 to 10 |  |  |  |  | CCNC1CCN(c2ccc(C(=O)Nc3cc(Oc4ccc(C#N)cc4)c4nc(C)cn4c3)c3nn(C)cc23)CC1 [Compound 352, N-[8-(4-cyanophenoxy)-2-methyl-imidazo[1,2-a]pyridin-6-yl]-4-[4-(ethylamino)-1-piperidyl]-2-methylindazole-7-carboxamide] | < 0.1 | > 10 |  | 
3 |  |  |  | 100 to 1000 |  | 0.1 to 1 | 0.1 to 1 | 0.1 to 1 | 0.1 to 1 | Cc1cn2cc(NC(=O)c3ccc(N4CCC(NC5CC5)CC4)c4cn(C)nc34)nc2c(Cn2cnc3ncnc(N)c32)n1 [Compound 831] |  |  | 0.1 to 1 | 0.1 to 1
4 | 1 to 10 | > 10 | 1 to 10 | 1000 to 10000 | > 10 |  |  |  |  | COc1c(NC(=O)c2c(F)cc(N3CCC(NC4CC4)CC3)c3cn(C)nc23)ccn2nc(C)cc12 [Compound 447, 4-(4-(cyclopropylamino)piperidin-1-yl)-6-fluoro-N-(4-methoxy-2-methylpyrazolo-[1,5-a]pyridin-5-yl)-2-methyl-2H-indazole-7-carboxamide 2,2,2-trifluoroacetate] | > 10 | > 10 |  | 
5 |  |  |  | 1000 to 10000 |  | > 10 | > 10 | > 10 | > 10 | Cn1cc2cc(NC(=O)c3ccc(N4CCC(N(C(=O)OC(C)(C)C)C5CC5)CC4)c4cn(C)nc34)cc(CN)c2n1 [Compound 815] |  |  | > 10 | > 10
6 | > 10 | 1 to 10 | > 10 | > 10000 | 1 to 10 |  |  |  |  | Cn1cc2c(N3CCC(NC4CC4)CC3)cc(F)c(C(=O)Nc3cccnc3O)c2n1 [Compound 411, 4-[4-(cyclopropylamino)-1-piperidyl]-6-fluoro-N-(2-hydroxy-3-pyridyl)-2-methyl-indazole-7-carboxamide] | > 10 | > 10 |  | 
7 |  |  |  | 100 to 1000 |  | < 0.1 | 1 to 10 | < 0.1 | 1 to 10 | COc1nc2c(C(=O)Nc3cn4cc(C)nc4c(OC)n3)ccc(N3C[C@H](C)N[C@@H](C)C3)c2s1 [Compound 759, 7-((3S,5S)-3,5-dimethylpiperazin-1-yl)-2-methoxy-N-(8-methoxy-2-methylimidazo[1,2-a]pyrazin-6-yl)benzo[d]thiazole-4-carboxamide 2,2,2-trifluoroacetate] |  |  | < 0.1 | 1 to 10
8 | > 10 | > 10 | > 10 | 1000 to 10000 | > 10 |  |  |  |  | Cc1cc2cc(NC(=O)c3c(F)cc(N4CCC(NC5CC5)CC4)c4cn(C)nc34)sc2c(C)n1 [Compound 484, 4-[4-(cyclopropyl-amino)-1-piperidyl]-N-(5,7-dimethyl-thieno[2,3-c]pyridin-2-yl)-6-fluoro-2-methyl-indazole-7-carboxamide] | > 10 | > 10 |  | 
9 |  |  |  | 1000 to 10000 |  | > 10 | > 10 | > 10 | > 10 | C[C@H]1CN(c2ccc(C(=O)Nc3cc(F)c4nn(C)cc4c3)c3sc(OCc4ccnn4C)nc23)C[C@H](C)N1 [Compound 796, 4-[(3S,5S)-3,5-dimethylpiperazin-1-yl]-N-(7-fluoro-2-methyl-indazol-5-yl)-2-[(2-methylpyrazol-3-yl)methoxy]-1,3-benzothiazole-7-carboxamide] |  |  | > 10 | > 10
